Reference: patent US20230382949A1 (HEPTARES THERAPEUTICS LIMITED, priority 2020, published 2023)
Where two headings read alike, the source gives them in different places. Starred links: 1 amine or outer side, 2 acyl side, 3 side chain; linkers in the order of their positions; H or OH if unused. Non-standard residues stand in square brackets, D forms with d. Residues, ends and D or L forms follow the SMILES beside them. *: point of attachment. Ala(piperidin-4-yl) = O=C([C@H](CC1CCN([*:3])CC1)N[*:1])[*:2]; Malonyl(2,2-Me2,histaminyl) = CC(C)(C(=O)NCCc1cnc[nH]1)C(=O)*; dBip = N[C@H](Cc1ccc(-c2ccccc2)cc1)C(=O)O; Oic = O=C(O)[C@@H]1C[C@@H]2CCCC[C@@H]2N1; Phe(4-Br) = N[C@@H](Cc1ccc(Br)cc1)C(=O)O; dPhe(4-Br) = N[C@H](Cc1ccc(Br)cc1)C(=O)O; X4 = CC(C)(C(=O)NCCCc1cnc[nH]1)C(=O)*; NMeH = CN[C@@H](Cc1c[nH]cn1)C(=O)O; hArg = N=C(N)NCCCC[C@H](N)C(=O)O; 3Pal = N[C@@H](Cc1cccnc1)C(=O)O; dCha = N[C@H](CC1CCCCC1)C(=O)O; Pip = O=C(O)[C@@H]1CCCCN1; Nle = CCCC[C@H](N)C(=O)O; Aib = CC(C)(N)C(=O)O; Bn = c1ccc(C*)cc1

What was measured:
human Apelin receptor [1] = biological target: T1, human Apelin receptor (Homo sapiens, UniProt P35414); experiment: cAMP accumulation assay (HTRF), functional agonism of human Apelin receptors; type: cell-based; conditions: for Emax: CHO
T1 sequence (P35414 1-380): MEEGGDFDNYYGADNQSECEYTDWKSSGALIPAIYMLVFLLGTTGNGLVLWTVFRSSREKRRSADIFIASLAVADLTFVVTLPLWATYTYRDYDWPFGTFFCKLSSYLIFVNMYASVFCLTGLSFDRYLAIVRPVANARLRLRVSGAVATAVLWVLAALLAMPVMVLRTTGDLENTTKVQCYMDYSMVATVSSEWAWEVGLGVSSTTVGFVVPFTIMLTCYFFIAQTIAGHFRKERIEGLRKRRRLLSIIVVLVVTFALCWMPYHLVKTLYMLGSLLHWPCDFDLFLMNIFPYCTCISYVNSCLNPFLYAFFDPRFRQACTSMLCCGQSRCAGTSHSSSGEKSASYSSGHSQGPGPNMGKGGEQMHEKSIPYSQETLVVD
Source text: cAMP functional assay. cAMP production was quantified using the Homogeneous Time-Resolved Fluorescence (HTRF) cAMP dynamic-2 assay (Cisbio, France).

human Apelin receptor [2] = biological target: T2, human Apelin receptor (Homo sapiens, UniProt P35414); experiment: β-arrestin accumulation assay, functional agonism of human Apelin receptors; type: cell-based
T2 construct: host or cells: CHO-K1 cells
How it was run: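 After 16 h at 37° C., cells were exposed to increasing agonist concentrations in serum-free medium for 90 min at 37° C. Detection reagent added for 60 min in the dark; receptor activation read by fluorescence and EC50 derived from concentration-response curves.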
T2 sequence (P32121 whole entry partner, one chain of several): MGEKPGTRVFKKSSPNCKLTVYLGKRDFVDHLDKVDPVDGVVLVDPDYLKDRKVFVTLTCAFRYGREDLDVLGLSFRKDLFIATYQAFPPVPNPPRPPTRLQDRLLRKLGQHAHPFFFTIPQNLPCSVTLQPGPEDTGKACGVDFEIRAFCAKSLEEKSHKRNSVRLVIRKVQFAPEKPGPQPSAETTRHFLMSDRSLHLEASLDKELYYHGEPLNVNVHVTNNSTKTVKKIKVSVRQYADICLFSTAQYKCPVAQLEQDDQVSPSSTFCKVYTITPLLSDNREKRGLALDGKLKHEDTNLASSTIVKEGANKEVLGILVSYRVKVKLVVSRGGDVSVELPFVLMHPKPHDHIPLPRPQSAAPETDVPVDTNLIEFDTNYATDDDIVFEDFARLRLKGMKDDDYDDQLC

[3] = Human Apelin agonist cAMP assay, CHO cells stably expressing the human Apelin receptor, 3 uM forskolin
[4] = pEC50, Human Apelin agonist cAMP assay, CHO cells stably expressing the human Apelin receptor, 3 uM forskolin

Row | Emax (human Apelin receptor [1]; read-out: Emax) | EC50 (human Apelin receptor [1]; read-out: pEC50 (converted)) | Compound | EC50 (human Apelin receptor [2]) | Emax (human Apelin receptor [1]; [3]) | EC50 (human Apelin receptor [1]; [4])
1 | 75.4% | 10 nM | CC(C)C[C@H](NC(=O)[C@@H](CCCNC(=N)N)NC(=O)[C@@H]1CCCCN1C(=O)[C@H](CCCCNC(=N)N)NC(=O)[C@H](CCC(N)=O)NC(=O)[C@@H](CCCNC(=N)N)NC(=O)C(C)(C)C(=O)NCCc1cnc[nH]1)C(=O)NC(C)(C)C(=O)N[C@@H](Cc1cccnc1)C(=O)N[C@@H](CC1CCNCC1)C(=O)NCC(=O)N1[C@H](C(=O)N[C@@H](Cc2ccc(Br)cc2)C(=O)N2CCC[C@H]2C(=O)N[C@H](Cc2ccc(-c3ccccc3)cc2)C(=O)O)C[C@@H]2CCCC[C@@H]21 [Example 31] ({Malonyl(2,2-Me2,histaminyl)}-[dR]Q[hArg][Pip][dR]L[Aib][3Pal][Ala(piperidin-4-yl)]G[Oic][Phe(4-Br)]P[dBip]-OH) | > 10000 nM |  | 
2 |  |  | CCCC[C@H](NC(=O)[C@@H]1C[C@@H]2CCCC[C@@H]2N1C(=O)CNC(=O)[C@H](CC1CCNCC1)NC(=O)[C@H](Cc1ccc(Br)cc1)NC(=O)C(C)(C)NC(=O)[C@H](CC(C)C)NC(=O)[C@@H](CCCNC(=N)N)NC(=O)[C@@H]1CCCN1C(=O)[C@H](CCCCNC(=N)N)NC(=O)[C@H](CCC(N)=O)NC(=O)[C@@H](CCCNC(=N)N)NC(=O)C(C)(C)C(=O)NCCc1cnc[nH]1)C(=O)N1CCC[C@H]1C(=O)N[C@H](Cc1ccc(-c2ccccc2)cc1)C(=O)O [Example 33] ({Malonyl(2,2-Me2,histaminyl)}-[dR]Q[hArg]P[dR]L[Aib][Phe(4-Br)][Ala(piperidin-4-yl)]G[Oic][Nle]P[dBip]-OH) | > 10000 nM | 63% | 25.1 nM
3 |  |  | CCCC[C@H](NC(=O)[C@@H]1C[C@@H]2CCCC[C@@H]2N1C(=O)CNC(=O)[C@H](CC1CCNCC1)NC(=O)[C@H](Cc1ccc(Br)cc1)NC(=O)C(C)(C)NC(=O)[C@H](CC(C)C)NC(=O)[C@H](CCCNC(=N)N)NC(=O)[C@@H]1CCCN1C(=O)[C@@H](CCCNC(=N)N)NC(=O)[C@H](CCC(N)=O)NC(=O)[C@@H](CCCNC(=N)N)NC(=O)C(C)(C)C(=O)NCCc1cnc[nH]1)C(=O)N1CCC[C@H]1C(=O)N[C@H](Cc1ccc(-c2ccccc2)cc1)C(=O)O [Example 34] ({Malonyl(2,2-Me2,histaminyl)}-[dR]Q[dR]PRL[Aib][Phe(4-Br)][Ala(piperidin-4-yl)]G[Oic][Nle]P[dBip]-OH) | > 10000 nM | 60.6% | 25.1 nM
4 |  |  | CC(C)C[C@H](NC(=O)[C@H](CCCNC(=N)N)NC(=O)[C@@H]1CCCN1C(=O)[C@@H](CCCNC(=N)N)NC(=O)[C@H](CCC(N)=O)NC(=O)[C@@H](CCCNC(=N)N)NC(=O)C(C)(C)C(=O)NCCc1cnc[nH]1)C(=O)NC(C)(C)C(=O)N[C@@H](Cc1ccc(Br)cc1)C(=O)N[C@@H](CC1CCNCC1)C(=O)NCC(=O)N1[C@H](C(=O)N[C@@H](Cc2ccccc2)C(=O)N2CCC[C@H]2C(=O)N[C@H](Cc2ccc(-c3ccccc3)cc2)C(=O)O)C[C@@H]2CCCC[C@@H]21 [Example 35] ({Malonyl(2,2-Me2,histaminyl)}-[dR]Q[dR]PRL[Aib][Phe(4-Br)][Ala(piperidin-4-yl)]G[Oic]FP[dBip]-OH) | > 10000 nM | 35.3% | 63.1 nM
5 |  |  | CC(C)C[C@H](NC(=O)[C@@H](CCCNC(=N)N)NC(=O)[C@@H]1CCCN1C(=O)[C@H](CCCCNC(=N)N)NC(=O)[C@H](CCC(N)=O)NC(=O)[C@@H](CCCNC(=N)N)NC(=O)C(C)(C)C(=O)NCCCc1cnc[nH]1)C(=O)NC(C)(C)C(=O)N[C@@H](Cc1c[nH]cn1)C(=O)N[C@@H](CC1CCNCC1)C(=O)NCC(=O)N1[C@H](C(=O)N[C@@H](Cc2ccc(Br)cc2)C(=O)N2CCC[C@H]2C(=O)N[C@H](Cc2ccc(-c3ccccc3)cc2)C(=O)O)C[C@@H]2CCCC[C@@H]21 [Example 36] (X4-[dR]Q[hArg]P[dR]L[Aib]H[Ala(piperidin-4-yl)]G[Oic][Phe(4-Br)]P[dBip]-OH) | > 100000 nM | 55.7% | 5.01 nM
6 |  |  | CC(C)C[C@H](NC(=O)[C@@H](CCCNC(=N)N)NC(=O)[C@@H]1CCCN1C(=O)[C@H](CCCCNC(=N)N)NC(=O)[C@H](CCC(N)=O)NC(=O)C(C)(C)C(=O)NCCc1cnc[nH]1)C(=O)N[C@H](C)C(=O)N[C@@H](Cc1c[nH]cn1)C(=O)N[C@@H](CC1CCNCC1)C(=O)NCC(=O)N1[C@H](C(=O)N[C@@H](Cc2ccc(Br)cc2)C(=O)N2CCC[C@H]2C(=O)N[C@H](Cc2ccc(-c3ccccc3)cc2)C(=O)O)C[C@@H]2CCCC[C@@H]21 [Example 38] ({Malonyl(2,2-Me2,histaminyl)}-Q[hArg]P[dR]L[dA]H[Ala(piperidin-4-yl)]G[Oic][Phe(4-Br)]P[dBip]-OH) | > 10000 nM | 27.9% | 31.6 nM
7 |  |  | CC(C)C[C@H](NC(=O)[C@@H](CCCNC(=N)N)NC(=O)[C@@H]1CCCN1C(=O)[C@H](CCCCNC(=N)N)NC(=O)[C@H](CCC(N)=O)NC(=O)C(C)(C)C(=O)NCCc1cnc[nH]1)C(=O)NC(C)(C)C(=O)N[C@@H](Cc1c[nH]cn1)C(=O)N[C@@H](CC1CCNCC1)C(=O)NCC(=O)N1[C@H](C(=O)N[C@@H](Cc2ccc(Br)cc2)C(=O)N2CCC[C@H]2C(=O)N[C@H](Cc2ccc(-c3ccccc3)cc2)C(=O)O)C[C@@H]2CCCC[C@@H]21 [Example 39] ({Malonyl(2,2-Me2,histaminyl)}-Q[hArg]P[dR]L[Aib]H[Ala(piperidin-4-yl)]G[Oic][Phe(4-Br)]P[dBip]-OH) | > 10000 nM | 62.1% | 31.6 nM
8 |  |  | CC(C)C[C@H](NC(=O)[C@H](CCCNC(=N)N)NC(=O)[C@@H]1CCCN1C(=O)[C@@H](CCCNC(=N)N)NC(=O)[C@H](CCC(N)=O)NC(=O)C(C)(C)C(=O)NCCc1cnc[nH]1)C(=O)NC(C)(C)C(=O)N[C@@H](Cc1c[nH]cn1)C(=O)N[C@@H](CC1CCNCC1)C(=O)NCC(=O)N1[C@H](C(=O)N[C@@H](Cc2ccc(Br)cc2)C(=O)N2CCC[C@H]2C(=O)N[C@H](Cc2ccc(-c3ccccc3)cc2)C(=O)O)C[C@@H]2CCCC[C@@H]21 [Example 40] ({Malonyl(2,2-Me2,histaminyl)}-Q[dR]PRL[Aib]H[Ala(piperidin-4-yl)]G[Oic][Phe(4-Br)]P[dBip]-OH) | > 10000 nM | 84.8% | 25.1 nM
9 | 46.1% | 50.1 nM | CC(C)C[C@H](NC(=O)[C@H](CCCNC(=N)N)NC(=O)[C@@H]1CCCN1C(=O)[C@@H](CCCNC(=N)N)NC(=O)[C@H](CCC(N)=O)NC(=O)C(C)(C)C(=O)NCCc1cnc[nH]1)C(=O)NC(C)(C)C(=O)N[C@@H](Cc1c[nH]cn1)C(=O)N[C@@H](CC1CCNCC1)C(=O)NCC(=O)N1[C@H](C(=O)N[C@@H](Cc2ccc(Br)cc2)C(=O)N2CCC[C@H]2C(=O)N[C@H](Cc2ccc(Br)cc2)C(=O)O)C[C@@H]2CCCC[C@@H]21 [Example 41] ({Malonyl(2,2-Me2,histaminyl)}-Q[dR]PRL[Aib]H[Ala(piperidin-4-yl)]G[Oic][Phe(4-Br)]P[dPhe(4-Br)]-OH) | > 10000 nM |  | 
10 |  |  | CC(C)C[C@H](NC(=O)[C@H](CCCNC(=N)N)NC(=O)[C@@H]1CCCN1C(=O)[C@@H](CCCNC(=N)N)NC(=O)[C@H](CCC(N)=O)NC(=O)C(C)(C)C(=O)NCCc1cnc[nH]1)C(=O)NC(C)(C)C(=O)N[C@@H](Cc1c[nH]cn1)C(=O)N[C@@H](CC1CCNCC1)C(=O)NCC(=O)N1[C@H](C(=O)N[C@@H](Cc2ccc(Br)cc2)C(=O)N2CCC[C@H]2C(=O)N[C@H](Cc2ccc(OCc3ccccc3)cc2)C(=O)O)C[C@@H]2CCCC[C@@H]21 [Example 42] ({Malonyl(2,2-Me2,histaminyl)}-Q[dR]PRL[Aib]H[Ala(piperidin-4-yl)]G[Oic][Phe(4-Br)]P[dY](Bn)-OH) | 79.4 nM | 107% | 7.94 nM
11 | 95.7% | 100 nM | CC(C)C[C@H](NC(=O)[C@H](CCCNC(=N)N)NC(=O)[C@@H]1CCCN1C(=O)[C@@H](CCCNC(=N)N)NC(=O)[C@H](CCC(N)=O)NC(=O)C(C)(C)C(=O)NCCc1cnc[nH]1)C(=O)NC(C)(C)C(=O)N[C@@H](Cc1c[nH]cn1)C(=O)N[C@@H](CC1CCNCC1)C(=O)NCC(=O)N1[C@H](C(=O)N[C@@H](Cc2ccc(Br)cc2)C(=O)N2CCC[C@H]2C(=O)N[C@H](CC2CCCCC2)C(=O)O)C[C@@H]2CCCC[C@@H]21 [Example 43] ({Malonyl(2,2-Me2,histaminyl)}-Q[dR]PRL[Aib]H[Ala(piperidin-4-yl)]G[Oic][Phe(4-Br)]P[dCha]-OH) | > 10000 nM |  | 
12 |  |  | CC(C)C[C@H](NC(=O)[C@H](CCCNC(=N)N)NC(=O)[C@@H]1CCCN1C(=O)[C@@H](CCCNC(=N)N)NC(=O)[C@H](CCC(N)=O)NC(=O)C(C)(C)C(=O)NCCc1cnc[nH]1)C(=O)NC(C)(C)C(=O)N(C)[C@@H](Cc1c[nH]cn1)C(=O)N[C@@H](CC1CCNCC1)C(=O)NCC(=O)N1[C@H](C(=O)N[C@@H](Cc2ccc(Br)cc2)C(=O)N2CCC[C@H]2C(=O)N[C@H](Cc2ccc(-c3ccccc3)cc2)C(=O)O)C[C@@H]2CCCC[C@@H]21 [Example 44] ({Malonyl(2,2-Me2,histaminyl)}-Q[dR]PRL[Aib][NMeH][Ala(piperidin-4-yl)]G[Oic][Phe(4-Br)]P[dBip]-OH) | > 10000 nM | 34.7% | 50.1 nM
